The values that follow come from US12285459B2, “Saposin-A derived peptides and uses thereof” (CHILDREN'S MEDICAL CENTER CORPORATION, priority 2011, dated 2025).

One test relates to VEGF. To be noted: cited from earlier work.
Test [1] relates to Tsp-1 and p53 expression in prostate fibroblasts. Nature of the test: Tsp-1 and p53 expression in prostate fibroblasts treated with peptides, western blot. The format is cell-based. To be noted: western blot; 10 ug/mL, 16 hours. On the procedure: Methods of assaying the effects of a polypeptide described herein on Tsp-1 and p53 expression are described herein. Briefly, a control Psap alongside a test polypeptide, is applied to a cell culture of prostate fibroblasts. The conditioned media from PC3M-LN4 (LN4) and PC3 cells are used as controls, with PC3 as positive/stimulating control and LN4 as negative/inhibiting controls. After a period of incubation (˜16 h), the cells are harvested, rinsed, and lysed. The lysates are analyzed for the level of Tsp-1 and p53 expression by western blot analyses, with β-actin as the internal lysate protein loading control.
These peptides were used to treat prostate and lung fibroblasts in vitro at a concentration of 10 ug/mL for 16 hours in ATCC-specified media supplemented with 0.1% FBS. Tsp-1 and p53 expression was analyzed by western blot as described previously (Kang, Y., et al., (2003) Cancer Cell 3:537-549.)

For a further test, the system named is Tsp-1 expression. To be noted: previously shown; cited from earlier work.

No end group written: not given here.

For `CN(C)c1ccc(/C=C2\C(=O)Nc3ccccc32)cc1` [SU 4312], in the test with VEGF, the vessel formation entry is “blocked”. Consider “CDWLPKPNMSASC (also: cyclized, mode not given here) [13-amino acid cyclized peptide spanning residues 35-47 of saposin A]”, for which the “stimulation of the expression of p53 and Tsp-1 in prostate fibroblasts” value in test [1] is “able to stimulate the expression of p53 and Tsp-1”. Also, the “stimulating Tsp-1 expression in vitro and in vivo” value with Tsp-1 expression is “capable of stimulating Tsp-1 expression in vitro and in vivo”.
